Assay results: the NIST ThermoML archive (doi:10.1021/je500936y)
± gives the expanded uncertainty stated by the source.

Columns and labels:
[1] = xn = mol fraction of the nth substance listed; details: 100 kPa, Liquid; for speed of sound: Frequency=3 MHz, Sing-around technique in a fixed-path interferometer; for mass density: Vibrating tube method
[2] = refractive index (Na D-line) (dimensionless); xn = mol fraction of the nth substance listed; details: 100 kPa, Liquid, Standard Abbe refractometry

C=CN1CCCC1=O [N-vinylpyrrolidone] + CCCCn1cc[n+](C)c1.F[B-](F)(F)F
Details	mass density, [1] [kg/m3]	refractive index, [2]	speed of sound, [1] [m/s]
298.15 K, x2 = 0	1039.36 ± 2	1.51119 ± 0.001	1521.5 ± 3.1
298.15 K, x2 = 0.1046	1069.96 ± 1.9	1.4987 ± 0.001	1537.3 ± 2.9
298.15 K, x2 = 0.2035	1093.11 ± 1.7	1.48698 ± 0.00099	1546 ± 2.7
298.15 K, x2 = 0.3042	1113.53 ± 1.5	1.47636 ± 0.00097	1552.7 ± 2.5
298.15 K, x2 = 0.406	1131.03 ± 1.3	1.46672 ± 0.00095	1557.8 ± 2.3
298.15 K, x2 = 0.4945	1144.21 ± 1.2	1.45868 ± 0.00094	1560.6 ± 2.1
298.15 K, x2 = 0.607	1159.22 ± 0.95	1.44913 ± 0.00092	1563.2 ± 1.9
298.15 K, x2 = 0.697	1170.1 ± 0.8	1.44241 ± 0.00091	1564.4 ± 1.8
298.15 K, x2 = 0.7828	1179.78 ± 0.67	–	1565.8 ± 1.6
298.15 K, x2 = 0.9104	1191.59 ± 0.5	1.42725 ± 0.00088	1566.1 ± 1.4
303.15 K, x2 = 0	1034.95 ± 2	1.50886 ± 0.001	1502.5 ± 3.1
303.15 K, x2 = 0.1046	1065.76 ± 1.9	1.49659 ± 0.001	1519.9 ± 2.9
303.15 K, x2 = 0.2035	1089.01 ± 1.7	1.48494 ± 0.00099	1529.6 ± 2.7
303.15 K, x2 = 0.3042	1109.53 ± 1.5	1.4745 ± 0.00097	1537.2 ± 2.5
303.15 K, x2 = 0.406	1127.12 ± 1.3	1.4648 ± 0.00095	1543 ± 2.3
303.15 K, x2 = 0.4945	1140.37 ± 1.1	1.45699 ± 0.00094	1546.2 ± 2.1
303.15 K, x2 = 0.607	1155.45 ± 0.95	1.44651 ± 0.00092	1549.5 ± 1.9
303.15 K, x2 = 0.697	1166.39 ± 0.8	1.44097 ± 0.00091	1551.4 ± 1.8
303.15 K, x2 = 0.7828	1176.14 ± 0.67	1.43197 ± 0.0009	1553 ± 1.6
303.15 K, x2 = 0.9104	1187.99 ± 0.49	1.42592 ± 0.00088	1553.9 ± 1.4
308.15 K, x2 = 0	1030.55 ± 2	1.5065 ± 0.001	1483.7 ± 3.1
308.15 K, x2 = 0.1046	1061.54 ± 1.9	1.49444 ± 0.001	1502.4 ± 2.9
308.15 K, x2 = 0.2035	1084.92 ± 1.7	1.48295 ± 0.00099	1513 ± 2.7
308.15 K, x2 = 0.3042	1105.54 ± 1.5	1.47251 ± 0.00097	1521.5 ± 2.5
308.15 K, x2 = 0.406	1123.22 ± 1.3	1.46308 ± 0.00095	1528 ± 2.3
308.15 K, x2 = 0.4945	1136.54 ± 1.1	1.45534 ± 0.00094	1532.1 ± 2.1
308.15 K, x2 = 0.607	1151.7 ± 0.94	1.44502 ± 0.00092	1535.8 ± 1.9
308.15 K, x2 = 0.697	1162.69 ± 0.79	1.43944 ± 0.00091	1538.3 ± 1.8
308.15 K, x2 = 0.7828	1172.5 ± 0.66	1.43065 ± 0.0009	1540.6 ± 1.6
308.15 K, x2 = 0.9104	1184.4 ± 0.49	1.42459 ± 0.00088	1542.1 ± 1.4
313.15 K, x2 = 0	1026.14 ± 2	1.50415 ± 0.001	1465 ± 3.1
313.15 K, x2 = 0.1046	1057.33 ± 1.8	1.49224 ± 0.001	1485 ± 2.9
313.15 K, x2 = 0.2035	1080.83 ± 1.7	1.48108 ± 0.00099	1496.5 ± 2.7
313.15 K, x2 = 0.3042	1101.56 ± 1.5	1.47065 ± 0.00097	1505.9 ± 2.5
313.15 K, x2 = 0.406	1119.32 ± 1.3	1.46137 ± 0.00095	1513.2 ± 2.3
313.15 K, x2 = 0.4945	1132.74 ± 1.1	1.45369 ± 0.00094	1517.9 ± 2.1
313.15 K, x2 = 0.607	1147.96 ± 0.93	1.44349 ± 0.00092	1522.3 ± 1.9
313.15 K, x2 = 0.697	1159.01 ± 0.79	1.43784 ± 0.00091	1525.3 ± 1.8
313.15 K, x2 = 0.7828	1168.89 ± 0.66	1.42937 ± 0.0009	1528.1 ± 1.6
313.15 K, x2 = 0.9104	1180.83 ± 0.49	1.42327 ± 0.00088	1530.1 ± 1.4
318.15 K, x2 = 0	1021.73 ± 2	1.50181 ± 0.001	1446.5 ± 3.1
318.15 K, x2 = 0.1046	1053.13 ± 1.8	1.49001 ± 0.001	1467.7 ± 2.9
318.15 K, x2 = 0.2035	1076.75 ± 1.6	1.47899 ± 0.00099	1480.3 ± 2.7
318.15 K, x2 = 0.3042	1097.59 ± 1.5	1.46886 ± 0.00097	1490.4 ± 2.5
318.15 K, x2 = 0.406	1115.44 ± 1.3	1.45957 ± 0.00095	1498.5 ± 2.3
318.15 K, x2 = 0.4945	1128.96 ± 1.1	1.45198 ± 0.00094	1503.9 ± 2.1
318.15 K, x2 = 0.607	1144.25 ± 0.93	1.44199 ± 0.00092	1509 ± 1.9
318.15 K, x2 = 0.697	1155.36 ± 0.78	1.43632 ± 0.00091	1512.5 ± 1.8
318.15 K, x2 = 0.7828	1165.3 ± 0.65	1.42834 ± 0.0009	1515.7 ± 1.6
318.15 K, x2 = 0.9104	1177.29 ± 0.48	1.42194 ± 0.00088	1518.3 ± 1.4
323.15 K, x2 = 0	1017.33 ± 1.9	1.49948 ± 0.001	1428.1 ± 3.1
323.15 K, x2 = 0.1046	1048.93 ± 1.8	1.4878 ± 0.001	1450.6 ± 2.9
323.15 K, x2 = 0.2035	1072.68 ± 1.6	1.47691 ± 0.00099	1464.1 ± 2.7
323.15 K, x2 = 0.3042	1093.63 ± 1.5	1.46692 ± 0.00097	1475.1 ± 2.5
323.15 K, x2 = 0.406	1111.58 ± 1.3	1.45773 ± 0.00095	1483.9 ± 2.3
323.15 K, x2 = 0.4945	1125.2 ± 1.1	1.45015 ± 0.00094	1489.9 ± 2.1
323.15 K, x2 = 0.607	1140.57 ± 0.92	1.44042 ± 0.00092	1495.7 ± 1.9
323.15 K, x2 = 0.697	1151.73 ± 0.78	1.43462 ± 0.00091	1499.8 ± 1.8
323.15 K, x2 = 0.7828	1161.76 ± 0.65	1.42708 ± 0.0009	1503.5 ± 1.6
323.15 K, x2 = 0.9104	1173.77 ± 0.48	1.42061 ± 0.00088	1506.7 ± 1.4
